Like-named read-outs stand apart in the source and are kept apart here.
Assays:
BuChE = test system: BuChE; parameters: method as in PMID 31250747; details: Figure 1; cited from earlier work
PDE9 = details: cited from earlier work
HDAC6 = test system: HDAC6; parameters: method as in PMID 31441641; details: Figure 1; cited from earlier work
[1] = target: T1, PDE9 (catalytic domain of PDE9A2) (Homo sapiens, UniProt O76083); test: Enzymatic assay against PDE9 (3H-cGMP hydrolysis, scintillation counting); format: biochemical; details: 0.25 h, read-out: Inhibition ratio against PDE9; for inhibition at 0.01 µM: at a concentration of 0.01 μM; for inhibition at 0.1 µM: at a concentration of 0.1 μM
T1 construct: PDE9 recombinant catalytic domain (amino acid 181–506); made in house; host or cells: E. coli BL21 (Codonplus)
Protocol: In brief, E. coli strain BL21 (Codonplus), which carrying with recombinant pET-PDE9A2 plasmid, was grown in LB medium (containing 100 μg/mL ampicillin and 0.4% glucose) at 37 °C until an OD600 achieved 0.6–0.8. Then, the temperature was turned down to 15 °C, and 0.1 mM iso-propyl-b-D-thiogalactopyranoside was added to LB medium to induce the expression of PDE9A2 protein. Bacteria were induced for 20 h and collected for purified PDE9A2 recombinant protein by a Ni-NTA column (Qiagen, Venlo, The Netherlands).
As for the enzymatic assays, ^3H-cGMP (20,000–30,000 cpm, GE Healthcare), the substrate for enzymatic assays against PDE9A2, were diluted in an assay buffer (containing 50 mM Tris-HCl (pH 8.0), 10 mM MgCl2, and 1 mM DTT). And then, the substrate ^3H-cGMP, catalytic domain of PDE9A2, and different concentrations of tested compounds were incubated at room temperature for 15 min. To terminate the reaction, 0.2 M ZnSO4 and 0.2 N Ba(OH)2 were added to the mixture, leaving unreacted ^3H-cGMP in the supernatant. […] Each compound was measured at a minimum of eight concentrations for the IC50 calculation and repeated at least three times.
4.Enzymatic assays against PDE9
The assay buffer contains 50 mM Tris-HCl (pH 8.0), 10 mM MgCl2 or 4 mM MnCl2, 1 mM DTT, and 10-20 nM 3H-cGMP (15000−30000 cpm/assay, CPM control). The reaction was carried out at room temperature for 15 min and then terminated by addition of 0.2 M ZnSO4. The reaction product 3H-GMP was precipitated out by […], whereas unreacted 3H-cGMP remained in the supernatant. The radioactivity in the supernatant was measured in 2.5 […]
(CPMenzyme). For the measurement of IC50 of inhibitors, at least seven concentrations of inhibitors were used in the presence of 3H-cGMP. The enzyme concentration in a range of 10− 100 ng/mL, which hydrolyzed 50- 70% of the substrate, was chosen for each inhibitory assay. The radioactivity was recorded as CPMinhibitor. The IC50 values for PDE9 were calculated using a nonlinear regression analysis.
Inhibition = […] × 100%

[2] = Antioxidant activity, ORAC-FL method; details: Trolox as standard
Protocol: The modified Oxygen Radical Absorbance Capacity Fluorescein (ORAC-FL) method was used for antioxidant activity test. In brief, the mixture of test compounds (20 μL) and fluorescein (120 μL, final concentration of 150 nM) was added into a black 96-well plate and incubated for 15 min at 37 °C. Then, 60 μL of 2,2′-azobis(2-amidinopropane) dihydrochloride (AAPH) solution (12 mM) was added rapidly to induce the reaction. The fluorescence with an excitation wavelength of 485 nm and emission at 535 nm was measured in Spectrafluor Plus plate reader (Tecan, Crailsheim, Germany) every minute for 4 h. Integration of the area under the curve (AUC) was […] 1 to 8 μM Trolox was used as a standard. Each compound was tested at 1–10 μM at least in three independent assays. The ORAC-FL values of each compound were calculated according to Equation (1) and expressed as Trolox equivalents.(1) ORAC-FL value=AUCsample−AUCblank/AUCTrolox−AUCblank×ConcentrationTrolox/Concentrationsample

AChE = test system: AChE; parameters: method as in PMID 31250747; details: Figure 1; cited from earlier work
[3] = Figure 1, current PDE9 inhibitors

T1 sequence (O76083 241-566): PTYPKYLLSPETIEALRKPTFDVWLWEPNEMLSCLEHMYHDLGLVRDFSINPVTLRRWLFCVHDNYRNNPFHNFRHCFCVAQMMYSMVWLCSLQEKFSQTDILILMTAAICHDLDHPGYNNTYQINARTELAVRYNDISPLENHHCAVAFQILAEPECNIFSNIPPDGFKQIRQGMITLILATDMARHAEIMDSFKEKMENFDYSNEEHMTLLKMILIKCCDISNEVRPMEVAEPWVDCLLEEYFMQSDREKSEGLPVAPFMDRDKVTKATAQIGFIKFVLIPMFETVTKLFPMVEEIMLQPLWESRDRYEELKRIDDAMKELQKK

| inhibition at 0.1 µM [1] [%] | Compound | IC50 (PDE9; [3]) [µM] | ORAC [2] | further results |
| --- | --- | --- | --- | --- |
| – | COc1cc(CNc2nc3c(cnn3C3CCCC3)c(=O)[nH]2)ccc1OC(=O)N(C)C [Compound 4] | 0.017 | – | IC50 (BuChE): 0.96 µM |
| – | CC(Nc1nc2c(cnn2C2CCCC2)c(=O)[nH]1)c1ccc(Cl)cc1 (stereo not shown) [Compound C33] | – | – | IC50 (PDE9; previously reported): 0.016 µM |
| – | C[C@@H]1CN(Cc2ccc(C(=O)NO)cc2)C[C@H]1c1nc2c(cnn2C2CCCC2)c(=O)[nH]1 [Compound 6] | 0.107 | – | IC50 (HDAC6): 0.04 µM |
| – | O=c1[nH]c(Cc2ccccn2)nc2c1cnn2C1CCOCC1 [Compound 2, Osoresnontrine] | 0.065 | – | – |
| 76 | C[C@@H](NCc1c[nH]c2ccc(F)cc12)c1nc2c(cnn2C2CCCC2)c(=O)[nH]1 [Compound 18b, (R)-1-cyclopentyl-6-(1-(((5-fluoro-1H-indol-3-yl)methyl)amino)ethyl)-1,5-dihydro-4H-pyrazolo[3,4-d]pyrimidin-4-one] | – | 0.88 ± 0.08 μmol of Trolox equiv/μmol tested compound | inhibition at 0.01 µM [1]: 61% |
| 82 | CC(Cc1n[nH]c2ccccc12)Nc1nc2c(cnn2C2CCCC2)c(=O)[nH]1 (stereo not shown) [Compound 17g, 6-((1-(1H-indazol-3-yl)propan-2-yl)amino)-1-cyclopentyl-1,5-dihydro-4H-pyrazolo[3,4-d]pyrimidin-4-one] | – | 0.17 ± 0.004 μmol of Trolox equiv/μmol tested compound | inhibition at 0.01 µM [1]: 70% |
| – | O=c1[nH]c(COCCC2CCN(Cc3ccccc3)CC2)nc2c1cnn2C1CCCC1 [Compound 5] | 0.285 | – | IC50 (AChE): 0.223 µM |
| < 30 | COc1ccc2[nH]nc(CN[C@H](C)c3nc4c(cnn4C4CCCC4)c(=O)[nH]3)c2c1 [Compound 18f, (R)-1-cyclopentyl-6-(1-(((5-methoxy-1H-indazol-3-yl)methyl)amino)ethyl)-1,5-dihydro-4H-pyrazolo[3,4-d]pyrimidin-4-one] | – | 0.24 ± 0.02 μmol of Trolox equiv/μmol tested compound | – |
